Our source for the IC50 values is patent US7763657B2, “Compounds, isomer thereof, or pharmaceutically acceptable salts thereof as vanilloid receptor antagonist; and pharmaceutical compositions containing the same” (Amorepacific Corporation, priority 2005, dated 2010).

pIC50: −log10 of the molar value.

This test addresses T1, vanilloid receptor (Rattus norvegicus, UniProt O35433).
T1 construct: DRG nerve cells from the primary culture of 2 days were equilibrated; endogenous in cells; host or cells: primary cultured dorsal root ganglion neurons of neonatal SD rats
In words: 45Ca influx test (calcium uptake) in primary cultured DRG neurons, antagonism of capsaicin. It is filed as cell-based. The settings on record: neonatal SD rat DRG nerve cells; capsaicin 0.5 μM; 45Ca 10 μCi/ml; 10 mins room temperature; read-out: Antagonist Calcium Uptake Test (IC50). How it is done: 1) Separation of Spinal Dorsal Root Ganglia (DRG) in Newborn Rats and Primary Culture Thereof
Neonatal (2-3 day old or younger than 2-3 day old) SD rats were put in ice for 5 minutes to anesthetize and disinfected with 70% ethanol. […] The DRG were incubated sequentially at 37° C. for 30 min in 200 U/ml collagenase and 2.5 mg/ml trypsin, separately. The ganglia were washed twice with DME/F12 medium supplemented with 10% horse serum, triturated through a fire-polished Pasteur pipette, filtered through Nitex 80 membrane to obtain single cell suspension and the suspension was washed once more. This was subjected to centrifugation, then resuspended in cell culture medium at certain level of cell density. As the cell culture medium, DME/F12 medium supplemented with 10% horse serum was diluted with identical medium conditioned by C6 glioma cells 2 days on a confluent monolayer (1:1), and NGF (Nerve Growth Factor) was added to adjust 200 ng/ml as final concentration. After the cells were grown 2 days in medium where cytosine arabinoside (Ara-C, 100 μM) was added to kill dividing nonneuronal cells, medium was changed to one without Ara-C. The resuspended cells were plated at a density of 1500-2000 neurons/well onto Terasaki plates previously coated with 10 μg/ml poly-D-ornithine.
2) ^45Ca Influx Experiments
DRG nerve cells from the primary culture of 2 days were equilibrated by washing 4 times with HEPES (10 mM, pH 7.4)-buffered Ca^2+, Mg^2+-free HBSS (H—HBSS). The solution in each well was removed from the individual well. Medium containing the test compound plus capsaicin (final concentration 0.5 μM) and ^45Ca (final concentration 10 μCi/ml) in H—HBSS was added to each well and incubated at room temperature for 10 mins. Terasaki plates were washed five times with H—HBSS and dried at room temperature. To each well, 0.3% SDS (10 μl) was added to elute ^45Ca. After the addition of scintillation cocktail of into each well, the amount of ^45Ca influx into neuron was measured by counting radioactivity.

T1 sequence (O35433 whole entry): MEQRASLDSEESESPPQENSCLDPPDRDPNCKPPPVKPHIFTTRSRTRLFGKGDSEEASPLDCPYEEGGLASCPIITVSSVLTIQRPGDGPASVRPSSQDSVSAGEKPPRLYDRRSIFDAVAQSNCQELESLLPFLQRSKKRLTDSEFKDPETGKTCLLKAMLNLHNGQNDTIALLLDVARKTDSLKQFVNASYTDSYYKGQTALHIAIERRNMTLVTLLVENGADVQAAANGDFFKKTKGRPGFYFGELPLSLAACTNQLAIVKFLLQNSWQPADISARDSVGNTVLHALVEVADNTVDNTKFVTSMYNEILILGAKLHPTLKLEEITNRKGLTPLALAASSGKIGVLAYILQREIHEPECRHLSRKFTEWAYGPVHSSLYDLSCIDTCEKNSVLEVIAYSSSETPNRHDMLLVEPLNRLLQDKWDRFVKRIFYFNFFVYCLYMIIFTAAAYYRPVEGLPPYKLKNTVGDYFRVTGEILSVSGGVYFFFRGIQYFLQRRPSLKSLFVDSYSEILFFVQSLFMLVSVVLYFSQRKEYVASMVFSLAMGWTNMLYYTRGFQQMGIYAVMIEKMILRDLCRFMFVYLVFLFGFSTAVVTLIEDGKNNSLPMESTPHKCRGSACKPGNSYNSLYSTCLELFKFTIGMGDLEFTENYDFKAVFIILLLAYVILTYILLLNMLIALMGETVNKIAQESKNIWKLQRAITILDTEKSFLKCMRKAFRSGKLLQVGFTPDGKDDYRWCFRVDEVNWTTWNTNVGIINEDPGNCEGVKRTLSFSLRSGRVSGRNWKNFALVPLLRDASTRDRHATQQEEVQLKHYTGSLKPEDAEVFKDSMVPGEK

For orientation: pIC50 means −log10 of the IC50, conventionally taken in molar units. With `C#Cc1cc([C@@H](C)NC(=O)Nc2ccc(C(C)(C)C)cc2)ccc1NS(C)(=O)=O` [Example 55, (R)—N-(4-{1-[3-(4-tert-Butylphenyl)ureido]ethyl}-2-ethynylphenyl)methanesulfonamide], the pIC50 was 6.77.

For the compound `C=Cc1cc([C@@H](C)NC(=O)Nc2ccc(C(C)(C)C)cc2)ccc1NS(C)(=O)=O` [Example 53, (R)—N-(4-{1-[3-(4-tert-Butylphenyl)ureido]ethyl}-2-vinylphenyl)methanesulfonamide], the pIC50 was 7.00.

`C=Cc1cc([C@@H](C)NC(=O)C#Cc2ccc(C(C)(C)C)cc2)ccc1NS(C)(=O)=O` [Example 11, 3-(4-t-butylphenyl)-N-[1-(R)-(4-methanesulfonylamino-3-vinylphenyl)ethyl]propiolicamide]: the pIC50 was 7.10.

As for `C=Cc1cc(CNC(=O)NCc2ccc(C(C)(C)C)cc2)ccc1NS(C)(=O)=O` [Example 1, N-{4-[3-(4-t-butylbenzyl)ureidomethyl]-2-vinylphenyl}methanesulfonamide], the pIC50 is 6.80.

As for `C=Cc1cc(CNC(=O)Nc2ccc(C(C)(C)C)cc2)cc(F)c1NS(C)(=O)=O` [Example 57, N-{4-[3-(4-tert-Butylphenyl)ureidomethyl]-2-fluoro-6-vinylphenyl}methanesulfonamide], the pIC50 was 6.30.

As for `C=Cc1cc([C@@H](C)NC(=O)/C(C)=C/c2ccc(C(C)(C)C)cc2)ccc1NS(C)(=O)=O` [Example 42, (R)-3-(4-tert-Butylphenyl)-N-[1-(4-methanesulfonylamino-3-vinylphenyl)ethyl]-2-methylacrylamide], the pIC50 is 7.66.

On to `C=Cc1cc([C@@H](C)NC(=O)CCc2ccc(C(C)(C)C)cc2)cc(F)c1NS(C)(=O)=O` [Example 35, (R)-3-(4-tert-Butylphenyl)-N-[1-(3-fluoro-4-methanesulfonylamino-5-vinylphenyl)ethyl]propionamide], for which the negative logarithm of the IC50 (pIC50) is 7.48.

Consider `C#Cc1cc(CNC(=O)NCc2ccc(C(C)(C)C)cc2)cc(F)c1NS(C)(=O)=O` [Example 3, N-{4-[3-(4-t-butylbenzyl)ureidomethyl]-2-ethynyl-6-fluorophenyl}methanesulfonamide], for which the pIC50 is 6.74.

For the compound `C=Cc1cc([C@@H](C)NC(=O)/C=C/c2ccc(C(C)(C)C)cc2)cc(F)c1NS(C)(=O)=O` [Example 36, (R)-3-(4-tert-Butylphenyl)-N-[1-(3-fluoro-4-methanesulfonylamino-5-vinylphenyl)ethyl]acrylamide], the pIC50 was 7.27.

Turning to `C#Cc1cc(CNC(=O)CCc2ccc(C(C)(C)C)cc2)cc(F)c1NS(C)(=O)=O` [Example 47, 3-(4-tert-butyl-phenyl)-N-(3-ethynyl-5-fluoro-4-methanesulfonylamino-benzyl)-propionamide], the pIC50 was 6.77.

On to `C=Cc1cc(CNC(=O)/C(C)=C/c2ccc(C(C)(C)C)cc2)cc(F)c1NS(C)(=O)=O` [Example 37, 3-(4-tert-Butylphenyl)-N-(3-fluoro-4-methanesulfonylamino-5-vinylbenzyl)-2-methylacrylamide], for which the pIC50 is 7.31.

With `C=Cc1cc(CNC(=O)NCc2ccc(C(C)(C)C)cc2)cc(C)c1NS(C)(=O)=O` [Example 8, N-{4-[3-(4-tert-Butyl-benzyl)-ureidomethyl]-2-methyl-6-vinyl-phenyl}-methanesulfonamide], the pIC50 is 6.51.

With `C=Cc1cc(CNC(=O)/C=C/c2ccc(C(C)(C)C)cc2NCCC(C)C)cc(F)c1NS(C)(=O)=O` [Example 32, 3-[4-tert-butyl-2-(3-methylbutylamino)phenyl]-N-(3-fluoro-4-methanesulfonylamino-5-vinylbenzyl)acrylamide], the pIC50 is 6.31.

Consider `C#Cc1cc(CNC(=O)NCc2ccc(C(C)(C)C)cc2)c(Cl)cc1NS(C)(=O)=O` [Example 5, N-{4-[3-(4-t-butylbenzyl)ureidomethyl]-5-chloro-2-ethynylphenyl}methanesulfonamide], for which the pIC50 is 6.31.

As for `C=Cc1cc(CNC(=O)/C=C/c2ccc(C(C)(C)C)cc2N2CCOCC2)cc(F)c1NS(C)(=O)=O` [Example 22, 3-(4-tert-Butyl-2-morpholin-4-yl-phenyl)-N-(3-fluoro-4-methanesulfonylamino-5-vinylbenzyl)acrylamide], the pIC50 was 6.60.

Consider `C=Cc1cc(CNC(=O)NCc2ccc(C(C)(C)C)cc2)cc(Cl)c1NS(C)(=O)=O` [Example 9, N-{4-[3-(4-tert-Butyl-benzyl)-ureidomethyl]-2-chloro-6-vinyl-phenyl}-methanesulfonamide], for which the pIC50 is 6.89.

In the case of `C=Cc1cc(CNC(=O)/C=C/c2ccc(C(C)(C)C)cc2OC2CCOCC2)cc(F)c1NS(C)(=O)=O` [Example 40, 3-[4-tert-Butyl-2-(tetrahydropyran-4-yloxy)phenyl]-N-(3-fluoro-4-methanesulfonylamino-5-vinylbenzyl)acrylamide], the pIC50 was 6.54.

As for `C=Cc1cc([C@@H](C)NC(=O)NCc2ccc(C(C)(C)C)cc2)cc(F)c1NS(C)(=O)=O` [Example 7, (R)—N-(4-{1-[3-(4-tert-Butyl-benzyl)-ureido]-ethyl}-2-fluoro-6-vinyl-phenyl)-methanesulfonamide], the pIC50 was 7.41.

Turning to `C=Cc1cc(CNC(=O)/C=C/c2ccc(C(C)(C)C)cc2NCCOC)cc(F)c1NS(C)(=O)=O` [Example 27, 3-[4-tert-Butyl-2-(2-methoxyethylamino)phenyl]-N-(3-fluoro-4-methanesulfonylamino-5-vinylbenzyl)acrylamide], the pIC50 is 7.12.

Regarding `C=Cc1cc([C@@H](C)NC(=O)Nc2ccc(C(C)(C)C)cc2)ccc1NS(=O)(=O)C=C` [Example 58, Ethenesulfonic Acid (4-{1-[3-(4-tert-butylphenyl)ureido]ethyl}-2-vinylphenyl)amide], the pIC50 is 6.35.

Turning to `C=Cc1cc(CNC(=O)/C=C/c2ccc(C(C)(C)C)cc2OCCOC)cc(F)c1NS(C)(=O)=O` [Example 23, 3-[4-tert-Butyl-2-(2-methoxy-ethoxy)-phenyl]-N-(3-fluoro-4-methanesulfonylamino-5-vinyl-benzyl)-acrylamide], the pIC50 is 7.17.

For `C=Cc1cc(CNC(=O)/C=C/c2ccc(C(C)(C)C)cc2)cc(Cl)c1NS(C)(=O)=O` [Example 21, 3-(4-tert-Butylphenyl)-N-(3-chloro-4-methanesulfonylamino-5-vinylbenzyl)acrylamide], the pIC50 was 6.80.

For the compound `C=CCOc1cc(C(C)(C)C)ccc1/C=C/C(=O)NCc1cc(F)c(NS(C)(=O)=O)c(C=C)c1` [Example 30, 3-(2-Allyloxy-4-tert-butylphenyl)-N-(3-fluoro-4-methanesulfonylamino-5-vinylbenzyl)acrylamide], the pIC50 was 7.17.

As for `C=Cc1cc(CNC(=O)/C(F)=C/c2ccc(C(C)(C)C)cc2)cc(F)c1NS(C)(=O)=O` [Example 38, 3-(4-tert-Butylphenyl)-2-fluoro-N-(3-fluoro-4-methanesulfonylamino-5-vinylbenzyl)acrylamide], the pIC50 was 6.57.

As to `C=Cc1cc(CNC(=O)C#Cc2ccc(C(C)(C)C)cc2)cc(F)c1NS(C)(=O)=O` [Example 12, 3-(4-tert-Butylphenyl)propynoic acid 3-fluoro-4-methanesulfonylamino-5-vinylbenzylamide], the pIC50 was 7.06.

Regarding `C=Cc1cc(CNC(=O)/C=C/c2ccc(C(C)(C)C)cc2NC(C)C)cc(F)c1NS(C)(=O)=O` [Example 34, 3-(4-tert-Butyl-2-isopropylaminophenyl)-N-(3-fluoro-4-methanesulfonylamino-5-vinylbenzyl)acrylamide], the pIC50 is 6.77.

For the compound `C=Cc1cc([C@@H](C)NC(=O)C#Cc2ccc(C(C)(C)C)cc2)cc(F)c1NS(C)(=O)=O` [Example 13, 3-(4-tert-Butylphenyl)propynoic acid N-[1-(3-fluoro-4-methanesulfonylamino-5-vinylphenyl)ethyl]amide], the pIC50 was 6.82.

For `C=Cc1cc(CNC(=O)NCc2ccc(C(C)(C)C)cc2)c(Cl)cc1NS(C)(=O)=O` [Example 4, N-{4-[3-(4-t-butylbenzyl)ureidomethyl]-5-chloro-2-vinylphenyl}methanesulfonamide], the pIC50 is 6.77.

Consider `C=Cc1cc(CNC(=O)/C=C/c2ccc(C(C)(C)C)cc2OC)cc(F)c1NS(C)(=O)=O` [Example 28, 3-(4-tert-Butyl-2-methoxyphenyl)-N-(3-fluoro-4-methanesulfonylamino-5-vinyl-benzyl)acrylamide], for which the pIC50 was 7.14.

Regarding `C=Cc1cc(CNC(=O)C(C)Cc2ccc(C(C)(C)C)cc2)cc(F)c1NS(C)(=O)=O` (stereo not drawn) [Example 43, 3-(4-tert-Butylphenyl)-N-(3-fluoro-4-methanesulfonylamino-5-vinylbenzyl)-2-methylpropionamide], the pIC50 was 7.17.
